Results on 12 molecules are retold here after ChEMBL document CHEMBL1201862, “PubChem BioAssay data set” (2004).

Among the test systems are COLO 205; HCT-116; HCT-15; HOP-62; HOP-92; HT-29; K562; KM12; MOLT-4; NCI-H522; OVCAR-3; OVCAR-8; SF-539; SK-MEL-2; SW-620; TK-10; UACC-257.
Common to all, as to assay: NCI-60 cell line screen, 48 h

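Cultured in 96-well plates, cells were exposed to test compound for 48 hours across five concentrations. GI50 is the concentration that inhibits growth by half.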 The source made the active and inactive calls. Rule as the data show it: active = GI50 up to about 1.1 µM and inactive = higher. Where only a bound is given, the exact number is not on record here.

As to `C/C(=N/O)c1ccc2c(c1)/C(=N/O)c1cc(/C(C)=N/O)ccc1-2`, the GI50 in the assay on COLO 205 is 17.8 µM (inactive); in the assay on HCT-116, 20.1 µM (inactive); with HCT-15 it was 14.1 µM; in the assay with HOP-62, 13.4 µM (inactive); with HOP-92, 26.1 µM (inactive); in the assay with HT-29, 12.6 µM (inactive). Also, the GI50 in the assay with K562 was 17.8 µM (inactive); in the assay with KM12 it was 16.3 µM (inactive); in the assay on MOLT-4 it was 2.49 µM (inactive); in the assay on NCI-H522, 18.9 µM (inactive); in the assay on OVCAR-3, 20.3 µM (inactive); in the assay on OVCAR-8, 16.7 µM (inactive). Besides, the GI50 with SF-539 is 15.5 µM (inactive); in the assay on SK-MEL-2, 23.9 µM (inactive); with SW-620, 14.5 µM (inactive); in the assay on TK-10 it was > 10 µM (inactive); in the assay with UACC-257 it was 2.39 µM (inactive).

As to `O=[N+]([O-])c1cc(/C=N/NS(=O)(=O)c2ccc(F)cc2)c(O)c([N+](=O)[O-])c1`, the GI50 with COLO 205 was 18.9 µM (inactive); with HCT-116, 33.7 µM (inactive); with HCT-15, 26.5 µM; in the assay with HOP-62, 43.2 µM (inactive); in the assay with HOP-92, 38.4 µM (inactive); in the assay on HT-29, 22.3 µM (inactive). Besides, the GI50 in the assay with K562 was 41.2 µM (inactive); in the assay with KM12, 21 µM (inactive); in the assay with MOLT-4, 21.9 µM (inactive); in the assay on NCI-H522, 21.2 µM (inactive); in the assay with OVCAR-3, 29 µM (inactive); with OVCAR-8 it was 24.8 µM (inactive). Further, the GI50 was 22 µM (inactive) with SF-539; 45.2 µM (inactive) with SK-MEL-2; 41.3 µM (inactive) with SW-620; 57.1 µM (inactive) with TK-10; 42.3 µM (inactive) in the assay on UACC-257.

`CC1=CC(=C(c2ccc(N)c(C)c2)c2ccc(N)c(C)c2)C=CC1=N`: the GI50 with COLO 205 was 1.93 µM (inactive); with HCT-116, 3.37 µM (inactive); in the assay on HCT-15, 12.8 µM; in the assay with HOP-62, 2.79 µM (inactive); with HOP-92, 3.32 µM (inactive); in the assay on HT-29 it was 3.64 µM (inactive). The GI50 in the assay with K562 was 2.92 µM (inactive); in the assay on KM12, 3.24 µM (inactive); in the assay on MOLT-4, 3.65 µM (inactive); in the assay with NCI-H522, 3.03 µM (inactive); in the assay on OVCAR-3 it was 4.49 µM (inactive); in the assay on OVCAR-8, 1.37 µM (inactive). In addition, the GI50 is 2.67 µM (inactive) with SF-539; 2.73 µM (inactive) in the assay with SK-MEL-2; 3.8 µM (inactive) in the assay on SW-620; 15.5 µM (inactive) in the assay on TK-10; 3 µM (inactive) in the assay with UACC-257.

Turning to `O=C1C(=Cc2ccc(F)cc2)C(=O)c2ccccc21`, the GI50 was > 100 µM (inactive) in the assay with COLO 205; > 100 µM (inactive) in the assay on HCT-116; greater than 100 µM in the assay with HCT-15; > 100 µM (inactive) in the assay with HOP-62; 0.925 µM (active) in the assay on HOP-92; > 100 µM (inactive) with HT-29. The GI50 in the assay with K562 was > 100 µM (inactive); in the assay with KM12, > 100 µM (inactive); in the assay on MOLT-4, 42 µM (inactive); with NCI-H522, > 100 µM (inactive); in the assay with OVCAR-3, > 100 µM (inactive); in the assay on OVCAR-8 it was > 100 µM (inactive). Further, the GI50 in the assay on SF-539, with SK-MEL-2, in the assay on SW-620, in the assay with TK-10 and with UACC-257 was > 100 µM (inactive) throughout.

For the molecule `CN(C(=O)c1ccco1)C(=S)N1CCN(c2ccccc2)CC1`, the GI50 with COLO 205 was > 100 µM (inactive); in the assay on HCT-116 it was > 100 µM (inactive); with HCT-15 it was greater than 100 µM; in the assay on HOP-62, > 100 µM (inactive); in the assay on HOP-92, > 100 µM (inactive); in the assay on HT-29, > 100 µM (inactive). Besides, the GI50 with K562, in the assay on KM12, with MOLT-4, in the assay on NCI-H522, in the assay on OVCAR-3 and in the assay with OVCAR-8 was > 100 µM (inactive) throughout. The GI50 with SF-539, in the assay on SK-MEL-2, with SW-620, with TK-10 and in the assay with UACC-257 was > 100 µM (inactive) each time.

For the molecule `C=CCc1ccc(O)c(-c2cc(C3Oc4c(-c5cc(CC=C)ccc5O)cc(O)cc4[C@@H]3CO)ccc2O)c1` (stereo partly specified), the GI50 was 35 µM (inactive) in the assay on COLO 205; 23.7 µM (inactive) in the assay on HCT-116; 15.8 µM in the assay with HCT-15; 21.4 µM (inactive) with HOP-62; 12.2 µM (inactive) in the assay with HOP-92; 33.3 µM (inactive) in the assay on HT-29. Besides, the GI50 is 15.6 µM (inactive) with K562; 27.4 µM (inactive) with KM12; 20.1 µM (inactive) with NCI-H522; 20.1 µM (inactive) with OVCAR-3; 42.4 µM (inactive) in the assay on OVCAR-8; 24 µM (inactive) in the assay on SF-539. Moreover, the GI50 with SK-MEL-2 was 18.6 µM (inactive); with SW-620 it was 15.7 µM (inactive); in the assay on TK-10, 66.1 µM (inactive); with UACC-257, 73.5 µM (inactive).

In the case of `O=c1c2ccccc2nc(-c2ccccc2Cl)n1NC1OC(CO)C(O)C(O)C1O` (stereo unspecified), the GI50 in the assay on COLO 205 is > 100 µM (inactive); in the assay on HCT-116 it was > 100 µM (inactive); in the assay with HCT-15 it was greater than 100 µM; in the assay with HOP-62, > 100 µM (inactive); in the assay on HOP-92, > 100 µM (inactive); with HT-29 it was > 100 µM (inactive). Moreover, the GI50 in the assay with K562, in the assay with KM12, in the assay on MOLT-4, in the assay on NCI-H522, with OVCAR-3 and in the assay with OVCAR-8 was > 100 µM (inactive) in each case. For the same molecule, the GI50 with SF-539, in the assay on SK-MEL-2, with SW-620, with TK-10 and in the assay with UACC-257 was > 100 µM (inactive) each time.

On to `COc1ccc(C(=O)C(c2ccc(OC)cc2)C2(O)C(=O)Nc3c(C)cc(Cl)cc32)cc1` (stereo unspecified), for which the GI50 in the assay with COLO 205 is > 100 µM (inactive); with HCT-116, 70.3 µM (inactive); with HCT-15, greater than 100 µM; in the assay with HOP-62, > 100 µM (inactive); with HOP-92, 21.9 µM (inactive); in the assay on HT-29, 63.5 µM (inactive). Further, the GI50 is 21.6 µM (inactive) in the assay on K562; > 100 µM (inactive) with KM12; 14.1 µM (inactive) with MOLT-4; 28 µM (inactive) in the assay with NCI-H522; 52 µM (inactive) in the assay with OVCAR-3; 92.7 µM (inactive) with OVCAR-8. The GI50 is 69.8 µM (inactive) with SF-539; > 100 µM (inactive) with SK-MEL-2; > 100 µM (inactive) in the assay with SW-620; > 100 µM (inactive) in the assay with TK-10; 55 µM (inactive) in the assay on UACC-257.

In the case of `Cn1cnc([N+](=O)[O-])c1Sc1nnnn1C`, the GI50 was 12.8 µM (inactive) with COLO 205; 14.9 µM (inactive) in the assay on HCT-116; > 100 µM (inactive) with HOP-62; 12.3 µM (inactive) in the assay with HOP-92; 19.4 µM (inactive) in the assay on HT-29; 16.7 µM (inactive) in the assay with K562. The GI50 in the assay with KM12 is 56.9 µM (inactive); in the assay on MOLT-4, 9.12 µM (inactive); in the assay on NCI-H522, 6.38 µM (inactive); in the assay on OVCAR-3 it was 15.9 µM (inactive); in the assay with OVCAR-8, 17.2 µM (inactive); in the assay on SF-539 it was 18.2 µM (inactive). Besides, the GI50 in the assay on SK-MEL-2 is 16.9 µM (inactive); with SW-620 it was 13.1 µM (inactive); in the assay with TK-10 it was 17.5 µM (inactive); in the assay on UACC-257, 16.3 µM (inactive).

Regarding `CSC1C=C(C(C)C)CCC1(C)SC` (stereo unspecified), the GI50 in the assay on COLO 205 was 16.2 µM (inactive); in the assay on HCT-116, 19.2 µM (inactive); in the assay on HCT-15, 21 µM; in the assay on HOP-62 it was 19.5 µM (inactive); in the assay with HOP-92, 16.2 µM (inactive); in the assay on HT-29, 15.4 µM (inactive). Also, the GI50 in the assay on K562 is 16.7 µM (inactive); in the assay with KM12, 14.3 µM (inactive); in the assay with MOLT-4, 16.5 µM (inactive); in the assay on NCI-H522, 16.3 µM (inactive); in the assay on OVCAR-3, 12.6 µM (inactive); in the assay with OVCAR-8, 19.4 µM (inactive). For the same molecule, the GI50 was 18.7 µM (inactive) in the assay on SF-539; 17.7 µM (inactive) in the assay on SK-MEL-2; 19.9 µM (inactive) in the assay with SW-620; 21.4 µM (inactive) in the assay with TK-10; 15.9 µM (inactive) in the assay with UACC-257.

With `CN(/N=C\c1ccnc2ccccc12)c1ccccc1`, the GI50 in the assay on COLO 205 was 20.3 µM (inactive); with HCT-116 it was 17.6 µM (inactive); in the assay on HCT-15 it was 17.1 µM; in the assay on HOP-62, 28.1 µM (inactive); in the assay with HOP-92, 25.4 µM (inactive); in the assay on HT-29, 18.9 µM (inactive). The GI50 with K562 was 20.6 µM (inactive); with KM12, 19 µM (inactive); with MOLT-4, > 100 µM (inactive); with NCI-H522 it was 17.8 µM (inactive); in the assay with OVCAR-3, 20.2 µM (inactive); in the assay with OVCAR-8, 38.3 µM (inactive). Besides, the GI50 is 25.7 µM (inactive) in the assay with SF-539; 19.5 µM (inactive) in the assay with SK-MEL-2; 23 µM (inactive) in the assay on SW-620; 35.3 µM (inactive) in the assay on TK-10; 20 µM (inactive) in the assay on UACC-257.

`c1ccc(SC(Sc2ccccc2)=C2CCC2)cc1`: the GI50 in the assay with COLO 205 is > 100 µM (inactive); in the assay with HCT-116, > 100 µM (inactive); in the assay on HCT-15, greater than 100 µM; in the assay on HOP-62 it was > 100 µM (inactive); in the assay on HOP-92 it was 55.3 µM (inactive); in the assay on K562 it was > 100 µM (inactive). The GI50 in the assay with KM12, in the assay on MOLT-4, in the assay on NCI-H522, in the assay with OVCAR-3, with OVCAR-8 and with SF-539 was > 100 µM (inactive) throughout. Moreover, the GI50 with SK-MEL-2, with SW-620, with TK-10 and with UACC-257 was > 100 µM (inactive) each time.
